In patent publication US9926302B2, “Heteroaryl substituted heterocyclyl sulfones” (priority 2014, dated 2018):

biological target: T1, Human CaV2.2 channels (Homo sapiens, UniProt Q00975); experiment: Fluorescence assay for CaV2.2 channels using potassium depolarization to induce channel opening (FLIPR, Fluo 4); type: cell-based; conditions: 3 μM test compound; alternative assay buffer 30 mM KCl (inactivated channel state); HEK293 cells stably expressing human CaV2.2
T1 construct: expressed in transfected cells
T1 sequence (P54289 947-1103): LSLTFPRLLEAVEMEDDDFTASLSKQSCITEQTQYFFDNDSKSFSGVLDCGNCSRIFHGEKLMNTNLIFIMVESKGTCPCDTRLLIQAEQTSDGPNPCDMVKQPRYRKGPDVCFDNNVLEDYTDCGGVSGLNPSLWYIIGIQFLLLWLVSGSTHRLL
T1 sequence (P54289 25-946): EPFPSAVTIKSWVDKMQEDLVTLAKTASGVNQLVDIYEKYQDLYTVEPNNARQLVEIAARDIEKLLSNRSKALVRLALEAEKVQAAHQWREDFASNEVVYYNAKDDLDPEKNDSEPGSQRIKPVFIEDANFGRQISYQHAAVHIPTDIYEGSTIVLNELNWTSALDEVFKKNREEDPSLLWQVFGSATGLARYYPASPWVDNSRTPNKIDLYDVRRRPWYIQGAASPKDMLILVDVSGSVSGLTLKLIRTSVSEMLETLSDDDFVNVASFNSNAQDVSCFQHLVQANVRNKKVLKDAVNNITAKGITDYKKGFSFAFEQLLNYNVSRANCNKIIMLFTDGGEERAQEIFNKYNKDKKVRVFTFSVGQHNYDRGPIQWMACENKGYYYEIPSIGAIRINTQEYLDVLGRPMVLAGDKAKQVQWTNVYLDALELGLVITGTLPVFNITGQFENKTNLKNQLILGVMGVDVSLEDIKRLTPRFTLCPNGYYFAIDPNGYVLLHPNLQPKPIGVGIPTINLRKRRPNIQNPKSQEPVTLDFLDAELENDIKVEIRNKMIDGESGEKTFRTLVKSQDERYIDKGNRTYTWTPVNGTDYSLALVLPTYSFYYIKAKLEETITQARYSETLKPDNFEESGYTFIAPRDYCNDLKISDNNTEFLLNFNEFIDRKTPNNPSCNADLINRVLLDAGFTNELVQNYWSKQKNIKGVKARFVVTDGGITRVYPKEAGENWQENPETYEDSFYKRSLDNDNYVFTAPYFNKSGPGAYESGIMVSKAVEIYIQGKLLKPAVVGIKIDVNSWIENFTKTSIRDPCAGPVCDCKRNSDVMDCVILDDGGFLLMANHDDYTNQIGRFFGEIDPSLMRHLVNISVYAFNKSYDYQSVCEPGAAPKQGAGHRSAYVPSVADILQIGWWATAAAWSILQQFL
T1 sequence (P54284 whole entry, further chain): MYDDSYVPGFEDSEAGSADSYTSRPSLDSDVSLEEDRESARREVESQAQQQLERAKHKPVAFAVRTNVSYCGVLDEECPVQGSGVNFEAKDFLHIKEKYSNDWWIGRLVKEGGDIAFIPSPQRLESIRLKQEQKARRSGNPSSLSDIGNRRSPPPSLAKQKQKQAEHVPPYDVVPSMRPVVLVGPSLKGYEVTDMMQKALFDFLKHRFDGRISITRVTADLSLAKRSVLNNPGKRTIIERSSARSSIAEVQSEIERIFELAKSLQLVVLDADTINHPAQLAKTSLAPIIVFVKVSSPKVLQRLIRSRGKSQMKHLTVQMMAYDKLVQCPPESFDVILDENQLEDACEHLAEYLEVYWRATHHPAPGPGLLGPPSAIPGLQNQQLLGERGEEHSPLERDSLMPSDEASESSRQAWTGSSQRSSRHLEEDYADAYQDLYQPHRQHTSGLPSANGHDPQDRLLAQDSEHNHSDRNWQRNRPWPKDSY
T1 sequence (Q00975 whole entry): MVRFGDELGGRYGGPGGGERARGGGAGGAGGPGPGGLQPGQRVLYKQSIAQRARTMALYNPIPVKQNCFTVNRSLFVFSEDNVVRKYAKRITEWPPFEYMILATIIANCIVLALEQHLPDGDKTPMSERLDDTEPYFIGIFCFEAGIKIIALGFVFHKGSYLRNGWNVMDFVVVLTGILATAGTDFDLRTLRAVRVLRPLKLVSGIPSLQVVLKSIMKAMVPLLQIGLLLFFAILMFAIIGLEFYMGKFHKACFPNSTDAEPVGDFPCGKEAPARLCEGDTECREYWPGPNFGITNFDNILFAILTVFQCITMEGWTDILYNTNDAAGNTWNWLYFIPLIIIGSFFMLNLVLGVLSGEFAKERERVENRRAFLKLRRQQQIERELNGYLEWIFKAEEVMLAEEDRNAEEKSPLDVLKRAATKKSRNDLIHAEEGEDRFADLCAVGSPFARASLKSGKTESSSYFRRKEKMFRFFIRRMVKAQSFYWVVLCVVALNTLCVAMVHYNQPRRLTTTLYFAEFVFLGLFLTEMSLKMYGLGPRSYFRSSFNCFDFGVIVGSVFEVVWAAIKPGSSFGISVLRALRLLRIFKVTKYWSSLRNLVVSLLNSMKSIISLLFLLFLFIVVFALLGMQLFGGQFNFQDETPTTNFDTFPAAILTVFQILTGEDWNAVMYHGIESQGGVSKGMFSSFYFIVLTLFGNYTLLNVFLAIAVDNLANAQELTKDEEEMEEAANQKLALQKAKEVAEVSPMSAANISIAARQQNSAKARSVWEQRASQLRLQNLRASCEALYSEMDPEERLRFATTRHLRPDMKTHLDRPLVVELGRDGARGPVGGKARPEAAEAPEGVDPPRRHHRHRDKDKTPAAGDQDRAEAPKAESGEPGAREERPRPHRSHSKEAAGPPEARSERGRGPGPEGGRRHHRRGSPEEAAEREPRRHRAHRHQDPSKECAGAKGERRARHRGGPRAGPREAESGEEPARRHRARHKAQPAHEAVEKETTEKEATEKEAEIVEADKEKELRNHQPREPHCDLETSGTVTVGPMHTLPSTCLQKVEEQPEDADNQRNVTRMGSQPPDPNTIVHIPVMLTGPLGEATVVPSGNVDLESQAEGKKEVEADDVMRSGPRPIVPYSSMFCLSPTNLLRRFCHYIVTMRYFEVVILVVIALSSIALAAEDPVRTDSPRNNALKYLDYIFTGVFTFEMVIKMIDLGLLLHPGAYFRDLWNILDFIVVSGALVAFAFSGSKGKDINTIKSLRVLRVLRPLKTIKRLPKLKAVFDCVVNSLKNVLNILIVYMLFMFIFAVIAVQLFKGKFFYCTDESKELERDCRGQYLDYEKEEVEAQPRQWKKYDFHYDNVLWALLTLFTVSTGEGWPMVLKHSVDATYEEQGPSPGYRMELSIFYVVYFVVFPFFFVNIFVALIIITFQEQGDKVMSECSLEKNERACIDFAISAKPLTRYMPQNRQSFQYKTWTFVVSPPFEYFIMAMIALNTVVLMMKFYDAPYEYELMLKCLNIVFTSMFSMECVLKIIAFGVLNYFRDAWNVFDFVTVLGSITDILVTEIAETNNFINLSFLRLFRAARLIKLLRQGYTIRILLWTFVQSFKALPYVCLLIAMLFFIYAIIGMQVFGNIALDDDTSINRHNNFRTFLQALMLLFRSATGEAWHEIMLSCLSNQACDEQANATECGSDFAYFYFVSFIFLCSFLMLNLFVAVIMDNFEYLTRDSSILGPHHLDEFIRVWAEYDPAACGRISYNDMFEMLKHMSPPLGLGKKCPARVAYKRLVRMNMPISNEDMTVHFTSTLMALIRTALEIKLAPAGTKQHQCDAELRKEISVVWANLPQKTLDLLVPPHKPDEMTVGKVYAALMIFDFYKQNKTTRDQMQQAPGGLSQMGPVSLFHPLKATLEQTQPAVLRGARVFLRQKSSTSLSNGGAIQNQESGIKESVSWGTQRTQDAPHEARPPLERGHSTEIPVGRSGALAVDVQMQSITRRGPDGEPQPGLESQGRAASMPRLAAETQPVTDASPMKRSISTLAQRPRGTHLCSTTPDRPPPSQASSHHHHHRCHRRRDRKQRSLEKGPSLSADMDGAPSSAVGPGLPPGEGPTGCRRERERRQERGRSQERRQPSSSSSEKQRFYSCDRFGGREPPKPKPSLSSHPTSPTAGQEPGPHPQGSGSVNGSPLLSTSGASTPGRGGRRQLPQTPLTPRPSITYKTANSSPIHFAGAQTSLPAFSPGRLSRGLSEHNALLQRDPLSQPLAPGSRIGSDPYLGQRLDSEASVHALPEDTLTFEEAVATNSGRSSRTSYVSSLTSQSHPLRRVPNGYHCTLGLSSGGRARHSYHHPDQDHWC
Summary of the method: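 HEK293 cells stably co-expressing CaV2.2 with alpha2-delta and beta subunits plus Kir2.3, loaded with 2 μM Fluo 4 and pre-incubated 15 min at 25° C with compound in 1 mM or 30 mM KCl buffer (pH 7.4; latter promotes inactivated state). Depolarized by KCl addition; peak fluorescence amplitude normalized to baseline gives inhibition.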

In the case of `CC(C)c1nnc(C2CC(C)(S(=O)(=O)c3cccc(C(F)(F)F)c3)CCO2)o1` (single isomer, unassigned) [SC-125, 2-Isopropyl-5-[4-methyl-4-[[3-(trifluoromethyl)phenyl]sulfonyl]-tetrahydro-pyran-2-yl]-[1,3,4]oxadiazole], the “Activity Category: %-Inhib (CaV2.2) @3 μM @30 mM KCl” value is reported as “C (%-Inhibition >40% up to ≤75%)”.
In the case of `CC1(S(=O)(=O)c2cccc(C(F)(F)F)c2)CCOC(c2nnc(C3CC3)o2)C1` (single isomer, unassigned) [SC-129, 2-Cyclopropyl-5-[4-methyl-4-[[3-(trifluoromethyl)phenyl]sulfonyl]-tetrahydro-pyran-2-yl]-[1,3,4]oxadiazole], the “Activity Category: %-Inhib (CaV2.2) @3 μM @30 mM KCl” value is reported as “C (%-Inhibition >40% up to ≤75%)”.

same assay, conditions: HEK293, 3 μM test compound; alternative assay buffer 30 mM KCl (inactivated channel state); HEK293 cells stably expressing human CaV2.2; read-out: Activity Category: %-Inhib (CaV2.2) @3 μM @30 mM KCl

Compared with `C[S+]([O-])c1cnc(C2CC(C)(S(=O)(=O)c3cccc(C(F)(F)F)c3)CCO2)c(Cl)c1` (stereo not shown) [SC-233, 3-Chloro-5-(methylsulfinyl)-2-[4-methyl-4-[[3-(trifluoromethyl)phenyl]sulfonyl]-tetrahydro-pyran-2-yl]-pyridine], `CC1(S(=O)(=O)c2cccc(C(F)(F)F)c2)CCOC(c2ncc(OC(F)F)cc2Cl)C1` (stereo not shown) [SC-427, 3-Chloro-5-(difluoro-methoxy)-2-[4-methyl-4-[[3-(trifluoromethyl)phenyl]sulfonyl]-tetrahydro-pyran-2-yl]-pyridine] is higher in inhibition at 3 µM: 40 to 75% for the first, over 95% for the second.

Compared with `CCC1(S(=O)(=O)c2cccc(C(F)(F)F)c2)CCOC(c2cnc(C3CC3)cn2)C1` (racemic) [SC-333, 2-Cyclopropyl-5-[4-ethyl-4-[[3-(trifluoromethyl)phenyl]sulfonyl]-tetrahydro-pyran-2-yl]-pyrazine], `CCC1(S(=O)(=O)c2cccc(C(F)(F)F)c2)CCOC(c2noc(C3CC3)n2)C1` (stereo not shown) [SC-238, 5-Cyclopropyl-3-[4-ethyl-4-[[3-(trifluoromethyl)phenyl]sulfonyl]-tetrahydro-pyran-2-yl]-[1,2,4]oxadiazole] is lower in inhibition at 3 µM: over 95% for the first, 75 to 95% for the second.

`CC1(S(=O)(=O)c2cccc(C(F)(F)F)c2)CCOC(c2ccc(C(F)(F)F)nc2)C1` (stereo not shown) [SC-315, 5-[4-Methyl-4-[[3-(trifluoromethyl)phenyl]sulfonyl]-tetrahydro-pyran-2-yl]-2-(trifluoromethyl)-pyridine] and `CC1(S(=O)(=O)c2cccc(C(F)(F)F)c2)CCOC(c2ccc(C(F)(F)F)cn2)C1` (stereo not shown) [SC-309, 2-[4-Methyl-4-[[3-(trifluoromethyl)phenyl]sulfonyl]-tetrahydro-pyran-2-yl]-5-(trifluoromethyl)-pyridine] cannot be ordered by inhibition at 3 µM: over 95% for the first, over 95% for the second.

First: CCC1(S(=O)(=O)c2cccc(C(F)(F)F)c2)CCOC(c2cccc(C)n2)C1 (racemic) [SC-303, 2-[4-Ethyl-4-[[3-(trifluoromethyl)phenyl]sulfonyl]-tetrahydro-pyran-2-yl]-6-methyl-pyridine]
Second: CCC1(S(=O)(=O)c2cccc(C(F)(F)F)c2)CCOC(c2ccc(C)nc2C)C1 (racemic) [SC-319, 3-[4-Ethyl-4-[[3-(trifluoromethyl)phenyl]sulfonyl]-tetrahydro-pyran-2-yl]-2,6-dimethyl-pyridine]
The inhibition at 3 µM of the first is higher: 75 to 95% for the first, 40 to 75% for the second.

`CCC1(S(=O)(=O)c2cccc(C(F)(F)F)c2)CCOC(c2ccc(C(F)(F)F)cn2)C1` (stereo not shown) [SC-106, 2-[4-Ethyl-4-[[3-(trifluoromethyl)phenyl]sulfonyl]-tetrahydro-pyran-2-yl]-5-(trifluoromethyl)-pyridine] and `CC1(S(=O)(=O)c2cccc(C(F)(F)F)c2)CCOC(c2ccc(C3CC3)nc2)C1` (racemic) [SC-347, 2-Cyclopropyl-5-[4-methyl-4-[[3-(trifluoromethyl)phenyl]sulfonyl]-tetrahydro-pyran-2-yl]-pyridine] cannot be ordered by inhibition at 3 µM: over 95% for the first, over 95% for the second.

`Cc1cc(S(C)(=O)=O)cnc1C1CC(C)(S(=O)(=O)c2cccc(C(F)(F)F)c2)CCO1` (stereo not shown) [SC-262, 3-Methyl-5-methylsulfonyl-2-[4-methyl-4-[[3-(trifluoromethyl)phenyl]sulfonyl]-tetrahydro-pyran-2-yl]-pyridine] was tested, and the inhibition at 3 µM was 75 to 95%.
